{"source": "paper PMC12396240", "about": "(Drug Design, Development and Therapy, 2025)", "key": {"[1]": {"assay": "Pharmacokinetics of rivaroxaban in rats, alone and with palbociclib", "format": "in vivo, Sprague-Dawley rats"}, "[2]": {"assay": "Pharmacokinetics of apixaban in rats, alone and with palbociclib", "format": "in vivo, Sprague-Dawley rats"}, "[3]": {"assay": "Pharmacokinetics of palbociclib in rats, alone and with apixaban or rivaroxaban", "format": "in vivo, Sprague-Dawley rats"}, "BCRP (Abcg2)": {"tested_on": "BCRP (Abcg2)", "assay": "qRT-PCR mRNA expression in rat liver and intestine after palbociclib for 8 days", "format": "in vivo", "settings": "palbociclib for eight consecutive days vs blank control"}, "P-gp (Abcb1a)": {"tested_on": "P-gp (Abcb1a)", "assay": "qRT-PCR mRNA expression in rat liver and intestine after palbociclib for 8 days", "format": "in vivo", "settings": "palbociclib for eight consecutive days vs blank control"}, "[4]": {"settings": "SD rats, oral, rivaroxaban 2 mg/kg alone, geometric mean (GSD) (geometric CV%)"}, "[5]": {"settings": "male, Sprague-Dawley, rat, plasma, po, 2 mg/kg"}, "[6]": {"settings": "rivaroxaban 1 mg/kg + multiple doses of palbociclib compared with rivaroxaban 2 mg/kg, rats"}, "[7]": {"settings": "apixaban 0.25 mg/kg alongside palbociclib, rats, no statistical significance"}, "[8]": {"settings": "apixaban 0.5 mg/kg with simultaneous palbociclib vs apixaban-only group, rats"}, "[9]": {"settings": "apixaban 0.5 mg/kg with simultaneous palbociclib vs control group, rats"}, "[10]": {"settings": "palbociclib co-administered with apixaban vs palbociclib alone, rats"}, "[11]": {"settings": "palbociclib co-administered with rivaroxaban vs palbociclib alone, rats"}}, "note": "“Also recorded” adds a separate entry of the source."}
{"smiles": "O=C(NC[C@H]1CN(c2ccc(N3CCOCC3=O)cc2)C(=O)O1)c1ccc(Cl)s1", "note": "[Rivaroxaban, rivaroxaban]", "values": [{"measurement": "CLz", "setting": "[1]; [4]", "value": "0.69(GSD 1.20) (65.6%) L/h/kg"}, {"measurement": "Vz", "setting": "[1]; [4]", "value": "2.13(GSD 1.55) (118.4%) L/kg"}, {"measurement": "MRT inf", "setting": "[1]; [5]", "value": 3.67, "unit": "h"}, {"measurement": "MRT last", "setting": "[1]; [5]", "value": 3.32, "unit": "h"}, {"measurement": "AUC(0-t)", "setting": "[1]; male, Sprague-Dawley, rat, plasma, po, 2 mg/kg, AUC0-t, SD rats, rivaroxaban 2 mg/kg alone, geometric mean (GSD) (geometric CV%)", "value": 691, "unit": "ng·h/mL"}, {"measurement": "AUC(0-inf)", "setting": "[1]; male, Sprague-Dawley, rat, plasma, po, 2 mg/kg, AUC0-∞, SD rats, rivaroxaban 2 mg/kg alone, geometric mean (GSD) (geometric CV%)", "value": 722, "unit": "ng·h/mL"}, {"measurement": "Tmax", "setting": "[1]; male, Sprague-Dawley, rat, plasma, po, 2 mg/kg, Tmax, SD rats, rivaroxaban 2 mg/kg alone, geometric mean (GSD) (geometric CV%)", "value": 1.02, "unit": "h"}, {"measurement": "decrease in MRT0-t of rivaroxaban", "setting": "[1]; [6]", "value": 27.82, "unit": "%"}, {"measurement": "decrease in MRT0-∞ of rivaroxaban", "setting": "[1]; [6]", "value": 35.43, "unit": "%"}, {"measurement": "decrease in apparent volume of distribution Vz/F of rivaroxaban", "setting": "[1]; [6]", "value": 77.46, "unit": "%"}, {"measurement": "decrease in clearance CLz/F of rivaroxaban", "setting": "[1]; [6]", "value": 60.87, "unit": "%"}, {"measurement": "differences for Tmax and t1/2 of rivaroxaban", "setting": "[1]; [6]", "value": "no significant differences"}, {"measurement": "increase in AUC0-t of rivaroxaban", "setting": "[1]; [6]", "value": 161.86, "unit": "%"}, {"measurement": "increase in AUC0-∞ of rivaroxaban", "setting": "[1]; [6]", "value": 150.93, "unit": "%"}, {"measurement": "increase in Cmax of rivaroxaban", "setting": "[1]; [6]", "value": 243.63, "unit": "%"}, {"measurement": "effect on pharmacokinetic parameters of rivaroxaban", "setting": "[1]; rivaroxaban and palbociclib given 12 hours apart, rats", "value": "no significant pharmacokinetic changes; also recorded: not affected"}]}
{"smiles": "COc1ccc(-n2nc(C(N)=O)c3c2C(=O)N(c2ccc(N4CCCCC4=O)cc2)CC3)cc1", "note": "[Apixaban, apixaban]", "values": [{"measurement": "CLz", "setting": "[2]; SD rats, oral, apixaban 0.5 mg/kg alone, geometric mean (GSD) (geometric CV%)", "value": "0.86(GSD 1.49) (110.3%) L/h/kg"}, {"measurement": "differences for CLz/F, Tmax, t1/2, Vz/F, MRT0-t and MRT0-∞ of apixaban", "setting": "[2]; apixaban 0.25 mg/kg alongside palbociclib, rats", "value": "no significant differences"}, {"measurement": "increase in AUC0-t of apixaban", "setting": "[2]; [7]", "value": 43.35, "unit": "%"}, {"measurement": "increase in AUC0-∞ of apixaban", "setting": "[2]; [7]", "value": 43.49, "unit": "%"}, {"measurement": "increase in Cmax of apixaban", "setting": "[2]; [7]", "value": 45.03, "unit": "%"}, {"measurement": "increase in AUC0-t of apixaban", "setting": "[2]; [8]", "value": 258.36, "unit": "%"}, {"measurement": "increase in AUC0-∞ of apixaban", "setting": "[2]; [8]", "value": 256.64, "unit": "%"}, {"measurement": "increase in Cmax of apixaban", "setting": "[2]; [8]", "value": 243.61, "unit": "%"}, {"measurement": "decrease in apparent volume of distribution Vz/F of apixaban", "setting": "[2]; [9]", "value": 73.73, "unit": "%"}, {"measurement": "decrease in clearance CLz/F of apixaban", "setting": "[2]; [9]", "value": 72.53, "unit": "%"}, {"measurement": "effect on pharmacokinetic parameters of apixaban", "setting": "[2]; apixaban and palbociclib given 12 hours apart, rats", "value": "no significant pharmacokinetic changes; also recorded: not affected"}, {"measurement": "AUC(0-t)", "setting": "[2]; male, Sprague-Dawley, rat, plasma, po, 0.5 mg/kg, AUC0-t, SD rats, apixaban 0.5 mg/kg alone, geometric mean (GSD) (geometric CV%)", "value": 579, "unit": "ng·h/mL"}, {"measurement": "AUC(0-inf)", "setting": "[2]; male, Sprague-Dawley, rat, plasma, po, 0.5 mg/kg, AUC0-∞, SD rats, apixaban 0.5 mg/kg alone, geometric mean (GSD) (geometric CV%)", "value": 583, "unit": "ng·h/mL"}, {"measurement": "Cmax", "setting": "[2]; male, Sprague-Dawley, rat, plasma, po, 0.5 mg/kg, Cmax, SD rats, apixaban 0.5 mg/kg alone, geometric mean (GSD) (geometric CV%)", "value": 243, "unit": "ng/mL"}, {"measurement": "MRT last", "setting": "[2]; male, Sprague-Dawley, rat, plasma, po, 0.5 mg/kg, MRT0-t, SD rats, apixaban 0.5 mg/kg alone, geometric mean (GSD) (geometric CV%)", "value": 1.83, "unit": "h"}, {"measurement": "MRT inf", "setting": "[2]; male, Sprague-Dawley, rat, plasma, po, 0.5 mg/kg, MRT0-∞, SD rats, apixaban 0.5 mg/kg alone, geometric mean (GSD) (geometric CV%)", "value": 1.92, "unit": "h"}, {"measurement": "Tmax", "setting": "[2]; male, Sprague-Dawley, rat, plasma, po, 0.5 mg/kg, Tmax, SD rats, apixaban 0.5 mg/kg alone, geometric mean (GSD) (geometric CV%)", "value": 0.53, "unit": "h"}]}
{"smiles": "CC(=O)c1c(C)c2cnc(Nc3ccc(N4CCNCC4)cn3)nc2n(C2CCCC2)c1=O", "note": "[Palbociclib, palbociclib]", "values": [{"measurement": "AUC(0-t)", "setting": "[3]; male, Sprague-Dawley, rat, plasma, po, 11 mg/kg, AUC0-t, SD rats, palbociclib 11 mg/kg alone, geometric mean (GSD) (geometric CV%)", "value": 4340, "unit": "ng·h/mL"}, {"measurement": "AUC(0-inf)", "setting": "[3]; male, Sprague-Dawley, rat, plasma, po, 11 mg/kg, AUC0-∞, SD rats, palbociclib 11 mg/kg alone, geometric mean (GSD) (geometric CV%)", "value": 4350, "unit": "ng·h/mL"}, {"measurement": "Cmax", "setting": "[3]; male, Sprague-Dawley, rat, plasma, po, 11 mg/kg, Cmax, SD rats, palbociclib 11 mg/kg alone, geometric mean (GSD) (geometric CV%)", "value": 469, "unit": "ng/mL"}, {"measurement": "MRT last", "setting": "[3]; male, Sprague-Dawley, rat, plasma, po, 11 mg/kg, MRT0-t, SD rats, palbociclib 11 mg/kg alone, geometric mean (GSD) (geometric CV%)", "value": 7.33, "unit": "h"}, {"measurement": "MRT inf", "setting": "[3]; male, Sprague-Dawley, rat, plasma, po, 11 mg/kg, MRT0-∞, SD rats, palbociclib 11 mg/kg alone, geometric mean (GSD) (geometric CV%)", "value": 7.39, "unit": "h"}, {"measurement": "Tmax", "setting": "[3]; male, Sprague-Dawley, rat, plasma, po, 11 mg/kg, Tmax, SD rats, palbociclib 11 mg/kg alone, geometric mean (GSD) (geometric CV%)", "value": 2.83, "unit": "h"}, {"measurement": "half-life", "setting": "[3]; male, Sprague-Dawley, rat, plasma, po, 11 mg/kg, t1/2, SD rats, palbociclib 11 mg/kg alone, geometric mean (GSD) (geometric CV%)", "value": 3.99, "unit": "h"}, {"measurement": "increase in AUC0-t of palbociclib", "setting": "[3]; [10]", "value": 24.75, "unit": "%"}, {"measurement": "increase in AUC0-∞ of palbociclib", "setting": "[3]; [10]", "value": 24.83, "unit": "%"}, {"measurement": "increase in Cmax of palbociclib", "setting": "[3]; [10]", "value": 49.30, "unit": "%"}, {"measurement": "increase in AUC0-t of palbociclib", "setting": "[3]; [11]", "value": 32.94, "unit": "%"}, {"measurement": "increase in AUC0-∞ of palbociclib", "setting": "[3]; [11]", "value": 33.13, "unit": "%"}, {"measurement": "effect on BCRP mRNA expression", "setting": "BCRP (Abcg2); intestine", "value": "no significant inhibition"}, {"measurement": "decrease of BCRP mRNA expression", "setting": "BCRP (Abcg2); liver", "value": 31.66, "unit": "%"}, {"measurement": "downregulation of P-gp mRNA expression", "setting": "P-gp (Abcb1a); intestine", "value": 20.17, "unit": "%"}, {"measurement": "effect on P-gp mRNA expression", "setting": "P-gp (Abcb1a); liver", "value": "no significant effect"}]}
